According to patent US20100267561A1, “HERBICIDAL PYRIDAZINONE DERIVATIVES” (priority 2007, published 2010):

What was measured:
Type in all cases: in vivo
[1] = tested on: barnyardgrass (Echinochloa crus-galli); test: Test A pre-/postemergence plant response
Excerpt: (§1) Seeds of species selected from barnyardgrass (Echinochloa crus-galli), large crabgrass (Digitaria sanguinalis), giant foxtail (Setaria faberi), blackgrass (Alopecurus myosuroides), canarygrass (Phalaris minor), morningglory (Ipomoea coccinea), pigweed (Amaranthus retroflexus), velvetleaf (Abutilon theophrasti), wheat (Triticum aestivum), and corn (Zea mays) were planted into a blend of loam soil and sand and treated preemergence with a directed soil spray using test chemicals formulated in a non-phytotoxic solvent mixture which included a surfactant. At the same time these species were also treated with postemergence applications of test chemicals formulated in the same manner.
(§2) Plants ranged in height from 2 to 10 cm and were in the one- to two-leaf stage for the postemergence treatment. Treated plants and untreated controls were maintained in a greenhouse for approximately 10 days, after which time all treated plants were compared to untreated controls and visually evaluated for injury. Plant response ratings, summarized in Table A, are based on a 0 to 100 scale where 0 is no effect and 100 is complete control. A dash (-) response means no test results.

corn (Zea mays) = test: Test A pre-/postemergence plant response
Excerpt: as §1, §2

[2] = tested on: giant foxtail (Setaria faberi); test: Test A pre-/postemergence plant response
Excerpt: as §1, §2

[3] = tested on: large crabgrass (Digitaria sanguinalis); test: Test A pre-/postemergence plant response
Excerpt: as §1, §2

[4] = tested on: morningglory (Ipomoea coccinea); test: Test A pre-/postemergence plant response
Excerpt: as §1, §2

[5] = tested on: pigweed (Amaranthus retroflexus); test: Test A pre-/postemergence plant response
Excerpt: as §1, §2

[6] = tested on: velvetleaf (Abutilon theophrasti); test: Test A pre-/postemergence plant response
Excerpt: as §1, §2

[7] = tested on: wheat (Triticum aestivum); test: Test A pre-/postemergence plant response
Excerpt: as §1, §2

[8] = tested on: barnyardgrass (Echinochloa crus-galli); test: Test B flooded paddy test plant response
Excerpt: (§3) Plant species in the flooded paddy test consisted of rice (Oryza sativa), umbrella sedge (Cyperus difformis), ducksalad (Heteranthera limosa) and barnyardgrass (Echinochloa crus-galli) grown to the 2-leaf stage for testing. At time of treatment, test pots were flooded to 3 cm above the soil surface, treated by application of test compounds directly to the paddy water, and then maintained at that water depth for the duration of the test. Treated plants and controls were maintained in a greenhouse for 13 to 15 days, after which time all species were compared to controls and visually evaluated. Plant response ratings, summarized in Table B, are based on a scale of 0 to 100 where 0 is no effect and 100 is complete control. A dash (-) response means no test result.

[9] = tested on: ducksalad (Heteranthera limosa); test: Test B flooded paddy test plant response
Excerpt: as §3

rice (Oryza sativa) = test: Test B flooded paddy test plant response
Excerpt: as §3

[10] = tested on: umbrella sedge (Cyperus difformis); test: Test B flooded paddy test plant response
Excerpt: as §3

[11] = Postemergence, 125 g ai/ha, 0 to 100 scale, 0 no effect, 100 complete control
[12] = Postemergence, 500 g ai/ha, 0 to 100 scale, 0 no effect, 100 complete control
[13] = Preemergence, 125 g ai/ha, 0 to 100 scale (0 no effect, 100 complete control)
[14] = Preemergence, 500 g ai/ha, 0 to 100 scale (0 no effect, 100 complete control)
[15] = Flood (flooded paddy test), 62 g ai/ha, scale 0 to 100, 0 no effect, 100 complete control
[16] = Flood (flooded paddy test), 125 g ai/ha, scale 0 to 100, 0 no effect, 100 complete control
[17] = Flood (flooded paddy test), 250 g ai/ha, scale 0 to 100, 0 no effect, 100 complete control
[18] = Flood, 31 g ai/ha, scale 0 to 100

Compound: Cc1cc(-c2ccc(C(F)(F)F)cc2)nn1-c1c(O)c(C(F)(F)F)nn(C)c1=O [Compound 42]
- Plant response rating, Barnyardgrass [1, 11]: 0
- Plant response rating, Barnyardgrass [1, 12]: 0
- Plant response rating, Barnyardgrass [1, 13]: 0
- Plant response rating, Barnyardgrass [1, 14]: 0
- Plant response rating, Corn (corn (Zea mays); [11]): 20
- Plant response rating, Corn (corn (Zea mays); [12]): 20
- Plant response rating, Corn (corn (Zea mays); [13]): 0
- Plant response rating, Corn (corn (Zea mays); [14]): 0
- Plant response rating, Foxtail, Giant [2, 11]: 0
- Plant response rating, Foxtail, Giant [2, 12]: 10
- Plant response rating, Foxtail, Giant [2, 13]: 0
- Plant response rating, Foxtail, Giant [2, 14]: 0
- Plant response rating, Crabgrass, Large [3, 11]: 0
- Plant response rating, Crabgrass, Large [3, 12]: 0
- Plant response rating, Crabgrass, Large [3, 13]: 0
- Plant response rating, Crabgrass, Large [3, 14]: 0
- Plant response rating, Morningglory [4, 11]: 0
- Plant response rating, Morningglory [4, 12]: 0
- Plant response rating, Morningglory [4, 13]: 0
- Plant response rating, Morningglory [4, 14]: 0
- Plant response rating, Pigweed [5, 11]: 0
- Plant response rating, Pigweed [5, 12]: 0
- Plant response rating, Pigweed [5, 13]: 0
- Plant response rating, Pigweed [5, 14]: 0
- Plant response rating, Velvetleaf [6, 11]: 0
- Plant response rating, Velvetleaf [6, 12]: 0
- Plant response rating, Velvetleaf [6, 13]: 0
- Plant response rating, Velvetleaf [6, 14]: 0
- Plant response rating, Wheat [7, 11]: 0
- Plant response rating, Wheat [7, 12]: 10
- Plant response rating, Wheat [7, 13]: 0
- Plant response rating, Wheat [7, 14]: 0
- Plant response rating, Barnyardgrass [8, 15]: 0
- Plant response rating, Barnyardgrass [8, 16]: 0
- Plant response rating, Barnyardgrass [8, 17]: 0
- Plant response rating, Barnyardgrass [8, 18]: 0
- Plant response rating, Ducksalad [9, 15]: 0
- Plant response rating, Ducksalad [9, 16]: 0
- Plant response rating, Ducksalad [9, 17]: 0
- Plant response rating, Ducksalad [9, 18]: 0
- Plant response rating, Rice (rice (Oryza sativa); [15]): 0
- Plant response rating, Rice (rice (Oryza sativa); [16]): 0
- Plant response rating, Rice (rice (Oryza sativa); [17]): 0
- Plant response rating, Rice (rice (Oryza sativa); [18]): 0
- Plant response rating, Sedge, Umbrella [10, 15]: 0
- Plant response rating, Sedge, Umbrella [10, 16]: 0
- Plant response rating, Sedge, Umbrella [10, 17]: 0
- Plant response rating, Sedge, Umbrella [10, 18]: 0

Compound: CSc1cc(-c2ccc(F)cc2)nn1-c1c(O)cnn(C)c1=O [Compound 23]
- Plant response rating, Barnyardgrass [1, 11]: 0
- Plant response rating, Barnyardgrass [1, 12]: 70
- Plant response rating, Barnyardgrass [1, 13]: 0
- Plant response rating, Barnyardgrass [1, 14]: 10
- Plant response rating, Corn (corn (Zea mays); [11]): 0
- Plant response rating, Corn (corn (Zea mays); [12]): 20
- Plant response rating, Corn (corn (Zea mays); [13]): 0
- Plant response rating, Corn (corn (Zea mays); [14]): 20
- Plant response rating, Foxtail, Giant [2, 11]: 20
- Plant response rating, Foxtail, Giant [2, 12]: 80
- Plant response rating, Foxtail, Giant [2, 13]: 20
- Plant response rating, Foxtail, Giant [2, 14]: 70
- Plant response rating, Crabgrass, Large [3, 11]: 0
- Plant response rating, Crabgrass, Large [3, 12]: 20
- Plant response rating, Crabgrass, Large [3, 13]: 0
- Plant response rating, Crabgrass, Large [3, 14]: 0
- Plant response rating, Morningglory [4, 11]: 0
- Plant response rating, Morningglory [4, 12]: 0
- Plant response rating, Morningglory [4, 13]: 0
- Plant response rating, Morningglory [4, 14]: 0
- Plant response rating, Pigweed [5, 11]: 0
- Plant response rating, Pigweed [5, 12]: 0
- Plant response rating, Pigweed [5, 13]: 0
- Plant response rating, Pigweed [5, 14]: 0
- Plant response rating, Velvetleaf [6, 11]: 0
- Plant response rating, Velvetleaf [6, 12]: 0
- Plant response rating, Velvetleaf [6, 13]: 0
- Plant response rating, Velvetleaf [6, 14]: 0
- Plant response rating, Wheat [7, 11]: 0
- Plant response rating, Wheat [7, 12]: 0
- Plant response rating, Wheat [7, 13]: 0
- Plant response rating, Wheat [7, 14]: 0

Compound: CCn1ncc(O)c(-c2cn(-c3ccc(Cl)cc3)nc2C)c1=O [Compound 65]
- Plant response rating, Barnyardgrass [1, 11]: 0
- Plant response rating, Barnyardgrass [1, 12]: 0
- Plant response rating, Barnyardgrass [1, 13]: 0
- Plant response rating, Barnyardgrass [1, 14]: 0
- Plant response rating, Corn (corn (Zea mays); [11]): 0
- Plant response rating, Corn (corn (Zea mays); [12]): 0
- Plant response rating, Corn (corn (Zea mays); [13]): 0
- Plant response rating, Corn (corn (Zea mays); [14]): 0
- Plant response rating, Foxtail, Giant [2, 11]: 0
- Plant response rating, Foxtail, Giant [2, 12]: 20
- Plant response rating, Foxtail, Giant [2, 13]: 0
- Plant response rating, Foxtail, Giant [2, 14]: 90
- Plant response rating, Crabgrass, Large [3, 11]: 0
- Plant response rating, Crabgrass, Large [3, 12]: 20
- Plant response rating, Crabgrass, Large [3, 13]: 0
- Plant response rating, Crabgrass, Large [3, 14]: 0
- Plant response rating, Morningglory [4, 11]: 0
- Plant response rating, Morningglory [4, 12]: 0
- Plant response rating, Morningglory [4, 13]: 0
- Plant response rating, Morningglory [4, 14]: 0
- Plant response rating, Pigweed [5, 11]: 0
- Plant response rating, Pigweed [5, 12]: 0
- Plant response rating, Pigweed [5, 13]: 0
- Plant response rating, Pigweed [5, 14]: 0
- Plant response rating, Velvetleaf [6, 11]: 0
- Plant response rating, Velvetleaf [6, 12]: 0
- Plant response rating, Velvetleaf [6, 13]: 0
- Plant response rating, Velvetleaf [6, 14]: 0
- Plant response rating, Wheat [7, 11]: 0
- Plant response rating, Wheat [7, 12]: 0
- Plant response rating, Wheat [7, 13]: 0
- Plant response rating, Wheat [7, 14]: 0
- Plant response rating, Barnyardgrass [8, 15]: 0
- Plant response rating, Barnyardgrass [8, 16]: 0
- Plant response rating, Barnyardgrass [8, 17]: 0
- Plant response rating, Barnyardgrass [8, 18]: 0
- Plant response rating, Ducksalad [9, 15]: 0
- Plant response rating, Ducksalad [9, 16]: 0
- Plant response rating, Ducksalad [9, 17]: 40
- Plant response rating, Ducksalad [9, 18]: 0
- Plant response rating, Rice (rice (Oryza sativa); [15]): 0
- Plant response rating, Rice (rice (Oryza sativa); [16]): 0
- Plant response rating, Rice (rice (Oryza sativa); [17]): 15
- Plant response rating, Rice (rice (Oryza sativa); [18]): 0
- Plant response rating, Sedge, Umbrella [10, 15]: 0
- Plant response rating, Sedge, Umbrella [10, 16]: 0
- Plant response rating, Sedge, Umbrella [10, 17]: 80
- Plant response rating, Sedge, Umbrella [10, 18]: 0

Compound: Cc1nc(-c2ccc(Cl)cc2)nn1-c1c(O)cnn(C)c1=O [Compound 17]
- Plant response rating, Barnyardgrass [1, 11]: 50
- Plant response rating, Barnyardgrass [1, 12]: 90
- Plant response rating, Barnyardgrass [1, 13]: 40
- Plant response rating, Barnyardgrass [1, 14]: 100
- Plant response rating, Corn (corn (Zea mays); [11]): 0
- Plant response rating, Corn (corn (Zea mays); [12]): 40
- Plant response rating, Corn (corn (Zea mays); [13]): 0
- Plant response rating, Corn (corn (Zea mays); [14]): 40
- Plant response rating, Foxtail, Giant [2, 11]: 80
- Plant response rating, Foxtail, Giant [2, 12]: 90
- Plant response rating, Foxtail, Giant [2, 13]: 40
- Plant response rating, Foxtail, Giant [2, 14]: 90
- Plant response rating, Crabgrass, Large [3, 11]: 40
- Plant response rating, Crabgrass, Large [3, 12]: 80
- Plant response rating, Crabgrass, Large [3, 13]: 0
- Plant response rating, Crabgrass, Large [3, 14]: 70
- Plant response rating, Morningglory [4, 11]: 0
- Plant response rating, Morningglory [4, 12]: 0
- Plant response rating, Morningglory [4, 13]: 0
- Plant response rating, Morningglory [4, 14]: 0
- Plant response rating, Pigweed [5, 11]: 0
- Plant response rating, Pigweed [5, 12]: 0
- Plant response rating, Pigweed [5, 13]: 0
- Plant response rating, Pigweed [5, 14]: 0
- Plant response rating, Velvetleaf [6, 11]: 0
- Plant response rating, Velvetleaf [6, 12]: 0
- Plant response rating, Velvetleaf [6, 13]: 0
- Plant response rating, Velvetleaf [6, 14]: 0
- Plant response rating, Wheat [7, 11]: 0
- Plant response rating, Wheat [7, 12]: 50
- Plant response rating, Wheat [7, 13]: 20
- Plant response rating, Wheat [7, 14]: 50
- Plant response rating, Barnyardgrass [8, 15]: 0
- Plant response rating, Barnyardgrass [8, 16]: 0
- Plant response rating, Barnyardgrass [8, 17]: 0
- Plant response rating, Barnyardgrass [8, 18]: 0
- Plant response rating, Ducksalad [9, 15]: 40
- Plant response rating, Ducksalad [9, 16]: 40
- Plant response rating, Ducksalad [9, 17]: 95
- Plant response rating, Ducksalad [9, 18]: 40
- Plant response rating, Rice (rice (Oryza sativa); [15]): 15
- Plant response rating, Rice (rice (Oryza sativa); [16]): 20
- Plant response rating, Rice (rice (Oryza sativa); [17]): 40
- Plant response rating, Rice (rice (Oryza sativa); [18]): 0
- Plant response rating, Sedge, Umbrella [10, 15]: 40
- Plant response rating, Sedge, Umbrella [10, 16]: 40
- Plant response rating, Sedge, Umbrella [10, 17]: 70
- Plant response rating, Sedge, Umbrella [10, 18]: 30
